Results: patent US7745173B2, “Histone deacetylase and methods of use thereof” (The J. David Gladstone Institutes, priority 2001, dated 2010)

B1: carboxyl terminal domain (amino acids 438-915): dominant negative mutant of HDAC7: carboxyl terminal domain, amino acids 438-915, expressed from a construct (protein, UniProt Q8WUI4 438-915, looked up, fragment)
chain: GPAPLQQHPQVLLWEQQRLAGRLPRGSTGDTVLLPLAQGGHRPLSRAQSSPAAPASLSAPEPASQARVLSSSETPARTLPFTTGLIYDSVMLKHQCSCGDNSRHPEHAGRIQSIWSRLQERGLRSQCECLRGRKASLEELQSVHSERHVLLYGTNPLSRLKLDNGKLAGLLAQRMFVMLPCGGVGVDTDTIWNELHSSNAARWAAGSVTDLAFKVASRELKNGFAVVRPPGHHADHSTAMGFCFFNSVAIACRQLQQQSKASKILIVDWDVHHGNGTQQTFYQDPSVLYISLHRHDDGNFFPGSGAVDEVGAGSGEGFNVNVAWAGGLDPPMGDPEYLAAFRIVVMPIAREFSPDLVLVSAGFDAAEGHPAPLGGYHVSAKCFGYMTQQLMNLAGGAVVLALEGGHDLTAICDASEACVAALLGNRVDPLSEEGWKQKPNLNAIRSLEAVIRVHSKYWGCMQRLASCPDSWVPRVPGA
B2: amino terminal domain (amino acids 1-437): dominant negative mutant of HDAC7: amino terminal domain, amino acids 1-437, expressed from a construct (protein, UniProt Q8WUI4 1-437, looked up, fragment)
chain: MDLRVGQRPPVEPPPEPTLLALQRPQRLHHHLFLAGLQQQRSVEPMRLSMDTPMPELQVGPQEQELRQLLHKDKSKRSAVASSVVKQKLAEVILKKQQAALERTVHPNSPGIPYRTLEPLETEGATRSMLSSFLPPVPSLPSDPPEHFPLRKTVSEPNLKLRYKPKKSLERRKNPLLRKESAPPSLRRRPAETLGDSSPSSSSTPASGCSSPNDSEHGPNPILGSEALLGQRLRLQETSVAPFALPTVSLLPAITLGLPAPARADSDRRTHPTLGPRGPILGSPHTPLFLPHGLEPEAGGTLPSRLQPILLLDPSGSHAPLLTVPGLGPLPFHFAQSLMTTERLSGSGLHWPLSRTRSEPLPPSATAPPPPGPMQPRLEQLKTHVQVIKRSAKPSEKPRLRQIPSAEDLETDGGGPGQVVDDGLEHRELGHGQPEAR

Tests used:
Nur77 = Nur77 mRNA expression by northern blot in DO11.10 T-cells; format: cell-based, mouse; conditions: DO11.10 cells, 400 nM, various times
Protocol: DO11.10 T cell hybridomas were grown at 37° C., in RPMI 1640 medium supplemented with 10% FBS, 2 mM glutamine and 50 U/ml of streptomycin/penicillin. Transfections were performed by the DEAE-dextran-chlororquine method. The DNA concentration was kept constant in the different samples by using the corresponding empty vector. In some cases, 16 hours after transfection cells were treated with PMA (10 ng/ml) and ionomycin (0.5 μM) for 4 hours and then harvested for reporter assay. All transfections were done in triplicate and are presented as the result of at least 3 independent experiments. Luciferase reporter assays were done with the dual luciferase reporter assay system (Promega) using an EF1α promoter-driven renilla expression vector as an internal control.
The tissue-expression of HDAC7 was analyzed as using a multiple human tissue Northern blot and RNA Master blots obtained from Clontech. Expression of Nur77 upon TSA treatment was assessed as followed. DO11.10 cells were treated with 400 nM of TSA (Sigma) for various times. […] Autoradiographs were analyzed with a FUJIX BAS1000 phosphorus imaging system (Fuji, Tokyo, Japan). Quantification analysis of autoradiographs was performed on a Macintosh computer using the public domain NIH Image 1.62 program (developed at the U.S. National Institute of Health).

[1] = tested on: CRM1-mediated nuclear export of HDAC7-FLAG; assay: Subcellular localization of HDAC7-FLAG in transfected cells by indirect immunofluorescence; format: cell-based
Protocol: Immunofluorescence and Confocal Microscopy—Cells were plated onto glass coverslips and transfected the following day with Lipofectamine 2000 (Life Technologies) according to the manufacturer's instructions. After incubation overnight, transfected cells were fixed with 1% paraformaldehyde, permeabilized with phosphate buffered saline (PBS), pH 7.2 and 0.5% Triton X-100 and then incubated for 60 min at room temperature with the appropriate antibodies at dilutions typically between 1:100 and 1:1000. Cells were mounted onto glass slides in PBS/90% glycerol containing 1 mM paraphenylenediamine as an antifade reagent. Confocal microscopy was performed with a Zeiss LSM510 laser scanning confocal microscope at 488 nm (Alexa 488-conjugated secondary antibodies) and 543 nm (Cy3-conjugated secondary antibodies). The pinhole aperture was set to 1.0 airy unit for each channel. Band-pass filters and sequential scanning of individual fluorescent probes were used to eliminate cross talk between channels. Images were collected as 12-bit images, and each channel was independently rescaled from 0 to 255 (8-bit) for final presentation. […]

thymocytes = assay: Apoptosis in thymocytes expressing dominant negative HDAC7 constructs, commercially available kit; format: cell-based; conditions: construct expressed in thymocytes
Protocol: Constructs encoding dominant negative mutants of HDAC7 were generated. These constructs direct expression of either the amino terminal domain (amino acids 1-437) or the carboxyl terminal domain (amino acids 438-915) of HDAC7 in mammalian cells. These construct were individually introduced into thymocytes. Apoptosis was measured using a commercially available kit.

Row | Molecule | Apoptosis in thymocytes (thymocytes) | also measured
1 | CC(/C=C/C(=O)NO)=C\[C@@H](C)C(=O)c1ccc(N(C)C)cc1 [trichostatin A] | – | Nur77 mRNA expression (Nur77): induced in a time dependent manner
2 | CCC(=C/[C@H](C)C/C=C/C(C)=C/[C@@H](C)C(=O)[C@@H](C)[C@H](O)[C@@H](C)C/C(C)=C/C(=O)O)/C=C/[C@@H]1OC(=O)C=C[C@@H]1C [leptomycin B] | – | Subcellular localization of HDAC7-FLAG [1]: nuclear localization of HDAC7-FLAG in most transfected cells
3 | B1 | strongly induces apoptosis | –
4 | B2 | strongly induces apoptosis | –
